# Test results reported in patent publication US20080206203A1, “Method for Inhibiting Tumor Metastasis” (Inflammation Research Center Company Ltd., priority 2004, published 2008).
# Where two headings read alike, the source gives them in different places.
# How the values were obtained:
# [1] = in vivo; cited from earlier work
# [2] = system: dextran-induced rat paw edema; assay: dextran-induced rat paw edema; assay type: in vivo
# [3] = system: permeability of blood brain barrier and infiltration of white blood cells to cerebrospinal fluid caused by arachidonic acid; assay: arachidonic acid-induced central nervous system inflammation (CSF volume and WBC counts via subarachnoid cannula); assay type: in vivo, rat
# Source text: To investigate the role of leukotriene antagonists in the treatment of inflammation, a sensitive and quantitative method to measure inflammation for the central nervous system was developed. Important changes in the inflammatory process can be monitored, as both the permeability of blood brain barrier (BBB) and the infiltration of white blood cells (WBC) to cerebrospinal fluid (CSF) caused by arachidonic acid can be measured over time from the same experimental animal. In particular, the effect of the leukotriene C4 and D4 antagonist, pranlukast, was studied using this method. Changes in the inflammatory process of both the permeability of BBB and the infiltration of white blood cells (WBC) caused by administering arachidonic acid as a nociceptive stimulus were observed.
# Male rats, approximately 350-400 g, were anesthetized with sodium pentobarbital at a dose of 50 mg/kg intraperitoneally (i.p.). Animals were then placed in a stereotaxic unit. Fur from the top of the head to neck was shaved. The study area was disinfected with 70% ethanol followed by a 10% providone-iodine solution. Skin and muscle over the cervical cord were dissected until cervical vertebrae were exposed. A hole was made using a 23 G3/4 needle passing through the dura via the cisterna magna. One end of a 2-3 mm PE10 cannula (0.011 “I.D., 0.007” thick, 0.024″ O.D., 6.5 cm long) was inserted into the subarachnoid space at the cervical cord so as to avoid damage to neuronal tissue (FIG. 3). The cannula was fixed with cyanoacrylic glue to the peripheral tissue. The other end of PE10 was used for administration of a nociceptive stimulus, such as arachidonic acid (AA; 3.25 μg/2 μl) and subsequently for collecting cerebrospinal fluid (CSF) every thirty minutes thereafter during the 11-hour experimental period. The cannula filled with CSF immediately after the cannulation.
# Air was infused to inject AA to the subarachnoid space. The muscles and skin were closed with surgical staples. The rat was then removed from the stereotaxic unit and placed on a heat pad and continuously monitored.
# In the interaction study, the leukotriene C4 and D4 antagonist, pranlukast, was administered (490 mg/kg, i.p.) thirty minutes before administration of arachidonic acid (AA). If the effects of the anesthesia appeared to be wearing off, an additional 0.05-0.1 ml pentobarbital (50 mg/ml, i.p.) dose was administered. If at any time during the experiment, the animal appeared to be in pain or distress, the study was immediately stopped and the animal was euthanized.
# In the present study, the volume (μl) of cerebrospinal fluid (CSF) and white blood cell (WBC) counts in CSF was measured every thirty minutes for 11 hours from the same rat. One side of the cannula (PE10) was inserted into the subarachnoid space under pentobarbital anesthesia, avoiding neuronal damage (FIG. 3). If the brain tissue is damaged, the volume of CSF and WBC increases immediately without the administration of arachidonic acid. Since there are no WBC in the CSF in the normal rat, only rats that had no WBC in the CSF immediately after the cannulation were used. Another side of the cannula remained open and was used for the administration of nociceptive stimuli (arachidonic acid, LPS, dextran, etc.) and subsequently for collecting the CSF every thirty minutes during the experiment. The CSF volume was measured using a micropipette and WBC in the CSF were counted by means of a hemacytometer.
# [4] = system: rat ischemia model; assay: rat ischemia model, reversible 30 minute occlusion of both carotid arteries followed by reperfusion; assay type: in vivo; details: pre-treatment
# Protocol: One of 4-5 rats survived for one week when pranlukast (450 mg/kg i.p.) was administered 30 minutes before the occlusion.
# [5] = system: infiltration of WBC into the CSF caused by interleukin-6; assay: interleukin-6-induced infiltration of WBC into the CSF in the intact dog; assay type: in vivo; details: pretreatment, three different doses
# Source text: Additionally, increased infiltration of WBC into the CSF caused by interleukin-6 were inhibited by pretreatment of pranlukast (administered at three different doses) in the intact dog.
# [6] = system: capillary permeability and extravasation of white blood cells and tumor cells from the capillary; assay: interaction study: arachidonic acid-induced capillary permeability and extravasation into CSF (model of metastasis); assay type: in vivo, rat
# Protocol: (§1) To test for inhibition of metastasis, pranlukast is administered orally (instead of intraperitoneally as was done in Example 2) before intravenous injection of the cancer cells. Arachidonic acid (AA) is then administered to the subarachnoid space two hours after pranlukast administration. The volume of CSF, white blood cell counts and cancer cell counts in the CSF are measured every 30 minutes.
# (§2) Rats were anesthetized by sodium pentobarbital (50 mg/kg i.p.).
# (§3) A femoral vein was exposed and a polyethylene tube filled with 0.002% heparin in saline was inserted. The other end of the polyethylene tube was connected to a three way cock valve for the intravenous injection of cancer cells. The animal was then placed in a stereotaxic unit (Type SRS-6 produced by Narishige Scientific Instrument Lab). Fur from the top of the head to the neck was shaved. The study area was disinfected with 70% ethanol. Skin and muscle over the cervical vertebrae were exposed. A hole was made using an 18 G×1 ½ needle passing through the dura via the cisterna magna. One end (2-3 mm) of an SP10 tube (5-6 cm long) was inserted into the subarachnoid space. The cannula was fixed with cyanoacrylic glue to the peripheral tissue. The other end of the SP10 tube was used for administration of arachidonic acid (8.16 ng/2 μl of saline) and subsequently for collecting cerebrospinal fluid (CSF) every thirty minutes thereafter for 1-2 hours in the in vivo morphological study and for 8 hours in the interaction studies.
# As a capsule of Onon contains 112.5 mg of pranlukast, the powder from two capsules was stirred in 2.295 ml of deionized water with the electric mixer immediately before oral administration. The volume of administration of pranlukast was 5 ml/kg (dose=490 mg/kg).
# The number of cancer cells were prepared to 1/100 of the number of neutrophils in each rat using PBS. Because of body weight (400±50 g), the number of cancer cells were between 1.88×10^4 and 2.43×10^4 and the volume of administration of cancer cell was adjusted to 1 ml for each rat.
# Arachidonic acid was dissolved in saline and 816.25 ng/2 μl was administered for each rat.
# Three different treatments were administered as follows;
# 1st treatment was pranlukast (490 mg/kg p.o.) or deionized water (p.o.).
# 2nd treatment was with cancer cells or PBS
# 3rd treatment was with arachidonic acid or saline.
# The first treatment was administered 2 hours before arachidonic acid. The second treatment (cancer cells i.v.) was administered 2-3 minutes before arachidonic acid. Two canula in each animal to the femoral vein and to the subarachnoid space were inserted between the 1st treatment and 2nd treatment.
# The number on the right side of table corresponds to that of the figures for the results. Four rats were used for each group.
# (§4) The volume (μl) of CSF, WBC counts, and cancer cells counts was measured after the 3rd treatment for 8 hours.
# To analyze whether or not human cancer cells, as foreign substances, affect the immune system in rats, each parameter, i.e., white blood cells counts, tumor cells counts and CSF volume with rat cancer cells (RCN9) was compared with the corresponding parameters of COLO201, MKN 74, and QG56, respectively, using area under time action curves and analysis of variance (Dunnet). Probability value was p<0.05 to be significant.
# [7] = system: Colo 201 (colon cancer) cells; assay: interaction study with Colo201 cancer cells i.v.; assay type: in vivo, human
# Protocol: as §1
# (§5) Cultured human cancer cell lines, Colo 201 (colon cancer) and MKN 74 ([…]), and a cultured rat cancer cell line RCN9 were purchased from Health Science Research Resources Bank (Rinku-minamihama 2-11, Sennan-shi, Osaka, 590-0535, Japan). Human lung cancer cell line QG56 was a gift from Dr. Yukito Ichinose, Department of Laboratory Medicine, Kyusyu Cancer Center, Hukuoka, Japan. Cells were cultured at 37° C. and 5% CO2, in RPMI-1640 (SIGMA, MO, USA) supplemented with 5% fetal bovine serum, 2 mM L-glutamine (Gibco), 100 units penicillin, 100 μg/ml streptomycin (Gibco Invitrogen Corp., Grand Island, N.Y., USA).
# as §2
# as §3, with “The other end of the SP10 tube was used for administration of arachidonic acid (8.16 ng/2 μl of saline) and subsequently for collecting cerebrospinal fluid (CSF) every thirty minutes thereafter for 1-2 hours in the in vivo morphological study and for 8 hours in the interaction studies.” left out
# as §4
# [8] = system: MKN 74 (lung cancer) cells; assay: interaction study with MKN74 cancer cells i.v.; assay type: in vivo, human; details: pranlukast-MKN74-arachidonic acid, 490 mg/kg p.o., rat
# Protocol: as §1, §5, §2
# as §3, with “The other end of the SP10 tube was used for administration of arachidonic acid (8.16 ng/2 μl of saline) and subsequently for collecting cerebrospinal fluid (CSF) every thirty minutes thereafter for 1-2 hours in the in vivo morphological study and for 8 hours in the interaction studies.” left out
# as §4
# [9] = system: MKN 74 cells; assay: interaction study with MKN74 cancer cells i.v.; assay type: in vivo, human; details: pranlukast-MKN 74-saline
# Protocol: as §1, §5, §2
# as §3, with “The other end of the SP10 tube was used for administration of arachidonic acid (8.16 ng/2 μl of saline) and subsequently for collecting cerebrospinal fluid (CSF) every thirty minutes thereafter for 1-2 hours in the in vivo morphological study and for 8 hours in the interaction studies.” left out
# as §4
# [10] = system: lung cancer cell line QG56; assay: interaction study with QG56 cancer cells i.v.; assay type: in vivo, human
# Protocol: as §1, §5, §2
# as §3, with “The other end of the SP10 tube was used for administration of arachidonic acid (8.16 ng/2 μl of saline) and subsequently for collecting cerebrospinal fluid (CSF) every thirty minutes thereafter for 1-2 hours in the in vivo morphological study and for 8 hours in the interaction studies.” left out
# as §4
# [11] = system: RCN-9, a colon cancer cell line; assay: interaction study with RCN9 cancer cells i.v.; assay type: in vivo, rat
# Protocol: as §1, §5, §2
# as §3, with “The other end of the SP10 tube was used for administration of arachidonic acid (8.16 ng/2 μl of saline) and subsequently for collecting cerebrospinal fluid (CSF) every thirty minutes thereafter for 1-2 hours in the in vivo morphological study and for 8 hours in the interaction studies.” left out
# as §4
# [12] = system: rats; details: cited from earlier work
# [13] = system: mice; details: cited from earlier work
# [14] = system: rats; details: cited from earlier work; remark: listed apart in the source
# [15] = 20 mg/kg p.o., cited from earlier work
# [16] = 490 mg/kg p.o., eight hours after arachidonic acid
# [17] = pranlukast (490 mg/kg p.o.)-PBS-arachidonic acid (816 ng/2 μl), FIG. 11
# [18] = pranlukast-Colo201-arachidonic acid, 490 mg/kg p.o., rat
# [19] = pranlukast-QG56-arachidonic acid, 490 mg/kg p.o., rat
# [20] = pranlukast-RCN9-arachidonic acid, 490 mg/kg p.o., rat
smiles,measurement,setting,value
CC(C)(O)c1ccccc1CC[C@@H](SCC1(CC(=O)O)CC1)c1cccc(/C=C/c2ccc3ccc(Cl)cc3n2)c1 [montelukast],passage of the blood-brain barrier,[1],"does not pass, or passes the blood-brain barrier at most at a very minimal level"
O=C(Nc1cccc2c(=O)cc(-c3nnn[nH]3)oc12)c1ccc(OCCCCc2ccccc2)cc1 [pranlukast],inhibition of dextran-induced paw edema,"[2]; about 490 mg/kg, administered intraperitoneally",completely inhibited
same,inhibition of dextran-caused paw edema,"[2]; about 490 mg/kg, administered orally (FIG. 2)",completely inhibited
same,inhibition of dextran-induced rat paw edema,[2]; dose dependence,inhibited by pranlukast in a dose-dependent fashion
same,inhibition of inflammation caused by arachidonic acid,"[3]; 450 mg/kg i.p., arachidonic acid 3.25 μg/2 μl",completely inhibits
same,inhibition of the increase of CSF volume,"[3]; 490 mg/kg i.p. thirty minutes before arachidonic acid (3.25 μg/2 μl) into the subarachnoid space, rat",completely inhibited
same,inhibition of the permeability of the brain capillary marked by WBC infiltration,"[3]; 490 mg/kg i.p. thirty minutes before arachidonic acid, rat",completely inhibited
same,survival,[4],longer survival
same,increased infiltration of WBC into the CSF caused by interleukin-6,[5],inhibited
same,"area under the time action curve, CSF",[6]; [16],zero
same,"area under the time action curve, white blood cell counts",[6]; [16],zero
same,"area under the time action curve, tumor cell counts","[6]; 490 mg/kg p.o., eight hours after arachidonic acid, tumor cells i.v.",zero
same,extravasation of white blood cells caused by arachidonic acid,[6]; [17],inhibited
same,increased capillary permeability caused by arachidonic acid,[6]; [17],inhibited
same,effect of pranlukast by itself on tumor/WBC counts and CSF volume,"[6]; pranlukast-PBS-saline, 490 mg/kg p.o., no arachidonic acid",no effect
same,extravasation of tumor cells,[7]; [18],significantly inhibited
same,increasing capillary permeability,[7]; [18],significantly inhibited
same,effect when cancer cells present without arachidonic acid,[7]; pranlukast-Colo201-saline,did not have any effect
same,extravasation of tumor cells,[8],significantly inhibited
same,increasing capillary permeability,[8],significantly inhibited
same,effect when cancer cells present without arachidonic acid,[9],did not have any effect
same,extravasation of tumor cells,[10]; [19],significantly inhibited
same,increasing capillary permeability,[10]; [19],significantly inhibited
same,effect when cancer cells present without arachidonic acid,[10]; pranlukast-QG56-saline,did not have any effect
same,extravasation of tumor cells,[11]; [20],significantly inhibited
same,increasing capillary permeability,[11]; [20],significantly inhibited
same,effect when cancer cells present without arachidonic acid,[11]; pranlukast-RCN9-saline,did not have any effect
same,LD50,[12]; p.o.,> 2000 mg/kg
same,LD50,[12]; s.c.,> 2000 mg/kg
same,LD50,[13]; p.o.,> 2000 mg/kg
same,LD50,[13]; s.c.,> 2000 mg/kg
same,"behavior, changes in body weight, and food intake compared with control group","[14]; repeated administration 30, 100, 300, 1000 mg/kg/day p.o. for three months and six months",normal
same,urine examination and histopathological examinations,[14]; repeated administration,normal
same,"behavior, changes in body weight, and food intake compared with control group","[14]; single administration 30, 100, 300, 1000 mg/kg p.o.",normal
same,urine examination and histopathological examinations,[14]; single administration,normal
same,pranlukast in blood 24 hours after administration,[15]; 24 hours,no pranlukast was observed
same,time at which maximum blood concentration was attained,[15],within one hour
same,time the maximum blood concentration was maintained,[15],at least 5 hours
same,passage of the blood-brain barrier,[1],"does not pass, or passes the blood-brain barrier at most at a very minimal level"
"CCCCC/C=C\C/C=C\C/C=C\C/C=C\CCCC(=O)O [arachidonic acid, Arachidonic acid]",maximum CSF volume after administration,"[3]; arachidonic acid 3.2 μg/2 μl into subarachnoid space, collected every thirty minutes, rat",100 to 120 µL
same,CSF volume maintained for every thirty minutes,"[3]; arachidonic acid 3.2 μg/2 μl, during 4.0-5.0 hours post-administration",60 to 80 µL
same,time to peak / maximum CSF volume,"[3]; arachidonic acid into subarachnoid space, rat",≤ 3.5 h
COc1cc(C(=O)NS(=O)(=O)c2ccccc2C)ccc1Cc1cn(C)c2ccc(NC(=O)OC3CCCC3)cc12 [zafirlukast],passage of the blood-brain barrier,[1],"does not pass, or passes the blood-brain barrier at most at a very minimal level"
